According to publication PMC12732972, “Bifunctional BODIPY-Clioquinol Copper Chelator with Multiple Anti-AD Properties” (International Journal of Molecular Sciences, 2025):

Biological target: T1, beta amyloid (Aβ42) (Homo sapiens, UniProt P05067)
T1 construct: gene APP; synthetic peptide of 42 amino acids β-amyloid Aβ42 (monomers)
Experiment: ITC with Aβ[…] monomers (supported by fluorescence saturation binding with monomers and fibrils)

T1 sequence (P05067 672-713 limits assumed): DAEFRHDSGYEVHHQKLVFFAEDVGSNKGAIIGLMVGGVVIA

CC1=C(c2nc3ccccc3s2)C(C)=[N+]2C1=C(c1ccc(OCC(=O)NCCCOc3c(I)cc(Cl)c4cccnc34)cc1)c1c(C)cc(C)n1[B-]2(F)F [BDP-CLQ, 2-(4-(2-(benzo[d]thiazol-2-yl)-5,5-difluoro-1,3,7,9-tetramethyl-5H-5λ^4,6λ^4-dipyrrolo [1,2-c:2′,1′-f][1,3,2]diazaborinin-10-yl)phenoxy)-N-(3-((5-chloro-7-iodoquinolin-8-yl)-oxy)propyl)acetamide] gave a Kd of 4.08 ± 0.2 µM.
